{
  "source": "patent US12685738B2",
  "about": "“Inotodiol as agonist of liver x receptors, and use thereof” (CARBOEXPERT INC., priority 2020, dated 2026)",
  "key": {"[1]": {"tested_on": "LXR-related markers (Abca1, Srebf1_1C, AQP1, ApoE1)", "experiment": "In vivo qPCR analysis of effect of inotodiol on LXR-related markers", "design": "species or system mice (BALB/cAnNTacSam)", "procedure": "The effect of inotodiol on Abca1, Srebf1_1C, AQP1, and ApoE1, which are LXR-related markers, was analyzed.\nFirst, an inotodiol emulsion for administration at a dose of 4 mg/kg was prepared. Specifically, an emulsion was prepared by mixing inotodiol with 10% of olive oil (Monini, Classico extra virgin olive oil), 0.5% of tween 80, and sterile water. Subsequently, each 0.15 mL of the prepared emulsion was administered to BALB/cAnNTacSam (Sam Taco Bio Korea Co., Ltd.) for 5 days. After 5 days of administration, mice were euthanized, and then spleen, lung, liver and peritoneal cell samples were isolated.\nNext, to perform qPCR on the isolated samples, total RNA was extracted using a Bead™ Total RNA Prep Kit (BioFACT™) sample. Thereafter, primers for Abca1, Srebf1_1C, AQP1, and ApoE1 were used, the reaction reagent for qPCR was 2× Real-Time PCR Master Mix (BioFACT™), and the equipment used for qPCR was AriaMx Real-time PCR. The qPCR conditions were as follows: at 95° C. for 15 minutes, and 50 cycles at 95° C. for 20 seconds, 55° C. for 30 seconds, and 72° C. for 0.5-1 min/kb, and for the melting curve, 1 cycle was performed at 95° C. for 30 seconds, 65° C. for 30 seconds, and 95° C. for 30 seconds, and relative mRNA expression was measured."}, "[2]": {"experiment": "Two-week mouse toxicity test: health signs and total fat content of liver", "settings": "for changes in total fat content of the liver: male and female mice, 2 weeks", "procedure": "If inotodiol is a LXR-α agonist, inotodiol overexpresses Srebf1 in the liver, thereby inducing fatty liver. Selectivity for LXRs and safety of inotodiol were evaluated through a two-week mouse toxicity test.\nSpecifically, the inotodiol emulsion was orally administered to male and female ICR mice in an amount of 0.0 mg/kg (group 1), 5.0 mg/kg (group 2), and 20 mg/kg (group 3) once a day for 2 weeks. […] As a control, 100% olive oil was administered."}, "[3]": {"experiment": "Inotodiol concentrations in blood and brain tissue (LC/MS)", "type": "in vivo, Balb/c mice", "settings": "4.5 mg/kg orally for 10 days, sampled day 11; for concentration at 11 day: 4.5 mg/kg", "procedure": "When inotodiol was administered to mice, the concentrations of inotodiol detected in blood and brain tissue of the mice were analyzed.\nSpecifically, 7-week-old Balb/c mice were supplied and acclimatized for 1 week, and then 4 mice per group were assigned to conduct experiments. Mice were grouped into: four controls not administered with inotodiol; and four groups administered with inotodiol. In the groups administered with inotodiol, 4.5 mg/kg of inotodiol was orally administered for 10 days. On day 11, the controls and inotodiol-administered mice were sacrificed, and blood and brain tissue samples were prepared.\nFirst, to analyze the concentration of inotodiol in blood, 20 μL of serum was transferred to a 1.5 mL Eppendorf tube, and then inotodiol was extracted twice in ethanol. In each extraction step, 200 μL of ethanol was mixed with serum and the mixture was sonicated for 10 minutes, followed by centrifugation at 14000×g for 15 minutes.\nTo analyze the concentration of inotodiol in brain tissue, the whole brain was weighed and mixed with 10-fold (v/w) 100% ethanol, and then the mixture was sonicated and centrifuged.\nAfter centrifugation, each residue was reconstituted with 0.5 mL of 60% methanol for solid phase extraction by using a C18 cartridge (Sep-Pak C18 3 cc Vac Cartridge, 200 mg adsorbent, Waters). Samples were loaded into cartridges and activated using methanol (6 mL), followed by conditioning with 60% methanol (6 mL). The cartridges were then washed with 6 mL of 60% methanol. Then, inotodiol was collected by eluting the cartridges with 100% methanol (3 mL) in glass tubes. After evaporation of each sample, the residue was dissolved in methanol and subjected to LC/MS analysis."}, "ABCA1": {"tested_on": "ABCA1", "experiment": "Real-time PCR of ABCA1 gene expression in brain tissue", "type": "in vivo, Balb/c mice", "settings": "Ino (10 mpk) vs control (Naïve); groups prepared as in Example 3; FIG. 6A", "procedure": "(§1) When inotodiol was administered to mice, the expression of ABCA1 and APOE in brain tissue, which are genes related to neurodegenerative brain diseases, was analyzed.\n(§2) Specifically, as in Example 3, controls and inotodiol-administered mouse groups were prepared, and then, to extract total RNA, first, 50 mg of brain tissue samples were quantified, and then cells were crushed using a mortar. 1 mL of Trizol was dispensed into each crushed sample and mixed by vortexing. Then, 0.2 mL of chloroform was dispensed and a reaction was allowed to occur therein at room temperature for 3 minutes. The reaction product was centrifuged at 12,000 rpm and 4° C. for 15 minutes, and then only the transparent supernatant was transferred to a new tube. Thereafter, 0.5 mL of isopropyl alcohol was dispensed, and then a reaction was allowed to occur therein at room temperature for 10 minutes. The resultant was centrifuged 12,000 rpm and 4° C. for 10 minutes, and then the supernatant was completely removed, and impurities were removed using 1 mL of 75% ethanol. […] Each sample was dissolved using DEPC water, and then total RNA was quantified to 1000 ng/μL using Nanodrop, and cDNA synthesis was performed using primeScript RT Master Mix (Takara Korea). […]"}, "APOE": {"tested_on": "APOE", "experiment": "Real-time PCR of APOE gene expression in brain tissue", "type": "in vivo, Balb/c mice", "settings": "Ino (10 mpk) vs control (Naïve); groups prepared as in Example 3; FIG. 6B", "procedure": "as §1, §2"}, "rheumatoid arthritis": {"tested_on": "rheumatoid arthritis", "experiment": "Bovine type II collagen-induced arthritis, macroscopic arthritic score", "type": "in vivo, male DBA/1J mice", "settings": "4 mg/kg or 10 mg/kg orally once a day for 4 weeks; vs arthritic animals not administered; FIG. 7"}, "TNF-α": {"tested_on": "TNF-α", "experiment": "TNF-α ELISA in arthritic animals", "type": "in vivo, mouse", "settings": "arthritic animals administered with inotodiol; FIG. 8", "description": "Next, the expression of TNF-α, which is a factor that activates inflammation, was confirmed. […] Then, the coating buffer was removed, followed by washing three times with 200 μL of washing buffer (0.05% Tween20/PBS). To prevent non-specific binding, a reaction with 200 μL of a blocking solution (1% BSA/PBS) was allowed to occur at room temperature for 1 hour. Washing was performed three times using a washing buffer. A standard material (Biolgend) and each sample were diluted using a blocking solution, and then 100 μL of each thereof was dispensed, and a reaction was allowed to occur therein at room temperature for 2-4 hours. Washing was performed three times using a washing buffer. A secondary antibody (biotin-labeled detection antibody, biolegend) was diluted to 0.25-2 μg/mL using a blocking solution, and then 100 μl thereof was dispensed and a reaction was allowed to occur therein at room temperature for 1 hour. Washing was performed three times using a washing buffer. Avidin-Horseradish peroxidase (Biolegend) was diluted 1/1000 times using a blocking solution, then 100 μL thereof was dispensed and a reaction was allowed to occur therein at room temperature for 30 minutes. Washing was performed 5 times using a washing buffer. […] An ELISA plate was examined at 450 nm using an EPOCH microplate reader (Biotek)."}, "[4]": {"settings": "inotodiol emulsion 4 mg/kg for 5 days, various samples (FIGS. 1 to 5), vs untreated control"}, "[5]": {"settings": "liver sample, 4 mg/kg for 5 days"}},
  "note": "Where “and” joins values, the source holds several entries; their conditions need not be identical. Equal entries are not always repeated. Where two headings read alike, the source gives them in different places.",
  "data": [
    {"smiles": "CC(C)=CC[C@@H](O)[C@@H](C)[C@H]1CC[C@@]2(C)C3=C(CC[C@]12C)[C@@]1(C)CC[C@H](O)C(C)(C)[C@@H]1CC3", "note": "[inotodiol, (3S,5R,10S,13R,14R,17R)-17-[(2S,3R)-3-hydroxy-6-methylhept-5-en-2-yl]-4,4,10,13,14-pentamethyl-2,3,5,6,7,11,12,15,16,17-decahydro-1H-cyclopenta[a]phenanthren-3-ol]", "values": [
      {"measurement": "expression of AQP1 (relative mRNA expression)", "setting": "[1]; [4]", "value": "increases"},
      {"measurement": "expression of Abca1 (relative mRNA expression)", "setting": "[1]; [4]", "value": "increases"},
      {"measurement": "expression of ApoE1 (relative mRNA expression)", "setting": "[1]; [4]", "value": "increases"},
      {"measurement": "expression of Srebf1 (relative mRNA expression)", "setting": "[1]; [4]", "value": "increases"},
      {"measurement": "expression of AQP1, regulated by LXR-β", "setting": "[1]; [5]", "value": "significant increase"},
      {"measurement": "expression of Srebf1, specifically regulated by LXR-α", "setting": "[1]; [5]", "value": "no significant increase"},
      {"measurement": "LXR-α / LXR-β selectivity inferred from marker expression", "setting": "[1]; liver sample, inferred from Srebf1 and AQP1 expression", "value": "does not bind well to LXR-α and acts as an agonist by more specifically binding to LXR-β"},
      {"measurement": "Total fat (%) in mouse liver, Average", "setting": "[2]; Female, Group 2 (5.0 mg/kg oral once a day for 2 weeks)", "value": 3.24, "unit": "%"},
      {"measurement": "Total fat (%) in mouse liver, individual animal analyses", "setting": "[2]; Female, Group 2 (5.0 mg/kg oral once a day for 2 weeks), 5 mg/kg", "value": "2.96% and 3.08% and 2.80% and 2.72% and 3.45% and 3.57% and 3.03% and 3.10% and 4.42% and 3.82% and 2.85% and 3.09%"},
      {"measurement": "Total fat (%) in mouse liver, Average", "setting": "[2]; Female, Group 3 (20 mg/kg oral once a day for 2 weeks)", "value": 3.56, "unit": "%"},
      {"measurement": "Total fat (%) in mouse liver, individual animal analyses", "setting": "[2]; Female, Group 3 (20 mg/kg oral once a day for 2 weeks), 20 mg/kg", "value": "4.01% and 4.03% and 3.49% (2×) and 2.69% and 2.94% and 3.09% and 3.19% and 3.16% and 3.23% and 4.77% and 4.62%"},
      {"measurement": "Total fat (%) in mouse liver, Average", "setting": "[2]; Male, Group 2 (5.0 mg/kg oral once a day for 2 weeks)", "value": 3.23, "unit": "%"},
      {"measurement": "Total fat (%) in mouse liver, individual animal analyses", "setting": "[2]; Male, Group 2 (5.0 mg/kg oral once a day for 2 weeks), 5 mg/kg", "value": "3.39% and 3.25% and 3.48% and 3.47% and 2.83% and 2.72% and 2.86% and 3.78% and 3.19% and 3.17% and 3.18% and 3.43%"},
      {"measurement": "Total fat (%) in mouse liver, Average", "setting": "[2]; Male, Group 3 (20 mg/kg oral once a day for 2 weeks)", "value": 3.27, "unit": "%"},
      {"measurement": "Total fat (%) in mouse liver, individual animal analyses", "setting": "[2]; Male, Group 3 (20 mg/kg oral once a day for 2 weeks), 20 mg/kg", "value": "3.38% and 3.52% and 3.44% and 3.47% and 3.07% and 3.10% and 3.23% and 3.30% and 3.36% and 3.41% and 2.99% and 2.93%"},
      {"measurement": "changes in total fat content of the liver", "setting": "[2]; dose of 5 mg/kg", "value": "no significant changes"},
      {"measurement": "changes in total fat content of the liver", "setting": "[2]; dose of 20 mg/kg", "value": "no significant changes"},
      {"measurement": "signs of abnormal health", "setting": "[2]; oral, 5.0 and 20 mg/kg once a day for 2 weeks, male and female ICR mice", "value": "No signs of abnormal health"},
      {"measurement": "Inotodiol concentration (ng/g) Brain, individual mice", "setting": "[3]", "value": "177.1 ng/g and 133.3 ng/g and 135.0 ng/g"},
      {"measurement": "Inotodiol concentration (ng/g) Brain, Average", "setting": "[3]; 4 mice", "value": "151.7 ± 21.3", "unit": "ng/g"},
      {"measurement": "Inotodiol concentration (ng/g) Blood, Average", "setting": "[3]; 4 mice, serum", "value": "12.1 ± 1.3", "unit": "ng/g"},
      {"measurement": "Inotodiol concentration (ng/g) Blood, individual mice", "setting": "[3]; serum", "value": "10.5 ng/g and 14.2 ng/g and 11.8 ng/g"},
      {"measurement": "Kp at 11 day", "setting": "[3]; Balb/c, mouse, brain / blood (serum), oral, read-out: inotodiol detected in the brain relative to blood", "value": "~12"},
      {"measurement": "concentration at 11 day", "setting": "[3]; Balb/c, mouse, brain, oral, 4 mice, read-out: Inotodiol concentration (ng/g) Brain, Average", "value": "152 ± 21.3", "unit": "ng/g"},
      {"measurement": "concentration at 11 day", "setting": "[3]; Balb/c, mouse, brain, oral, read-out: Inotodiol concentration (ng/g) Brain, individual mice", "value": 161, "unit": "ng/g"},
      {"measurement": "concentration at 11 day", "setting": "[3]; Balb/c, mouse, serum, oral, 4 mice, serum, read-out: Inotodiol concentration (ng/g) Blood, Average", "value": "12.1 ± 1.3", "unit": "ng/g"},
      {"measurement": "concentration at 11 day", "setting": "[3]; Balb/c, mouse, serum, oral, serum, read-out: Inotodiol concentration (ng/g) Blood, individual mice", "value": 12.2, "unit": "ng/g"},
      {"measurement": "ABCA1 gene expression in brain tissue", "setting": "ABCA1", "value": "highly expressed"},
      {"measurement": "APOE gene expression in brain tissue", "setting": "APOE", "value": "highly expressed"},
      {"measurement": "macroscopic arthritic score (maximum score=16)", "setting": "rheumatoid arthritis", "value": "lower"},
      {"measurement": "TNF-α expression (ELISA)", "setting": "TNF-α", "value": "lower level"}
    ]}
  ]
}
